Series [1] concerns MM.1s myeloma cells. The experiment in a line: Cell cycle distribution by flow cytometry, propidium iodide (MM.1s). It counts as cell-based. As to conditions: 3 and 5 days, Compound A 2 μM, Lenalidomide 2 μM, Pomalidomide 1 μM. As to the method:
(§1) H929 (FIGS. 10A & 10B) or MM.1s (FIGS. 10C & 10D) myeloma cells were exposed to drug for 3 (FIGS. 10A & 10C) and 5 (FIGS. 10B & 10D) days and cell cycle distribution was assessed by flow cytometry via incorporation of propidium iodide. The relative fraction of cells in each stage of the cell cycle (GO/G1, S, and G2/M) as well as the fraction of dead cells (Sub G1) was then estimated.

Another series has as its system H929 cells. Briefly: Immunoblot in H929 cells. Format: cell-based. In general terms: In western blotting, separated proteins are transferred to a membrane and probed.
The conditions of series [2]: human, in vivo.
Experimental: (§4) In Part A of the trial, patients were treated with escalating doses of oral Compound A in combination with a standard dose and schedule of lenalidomide and dexamethasone on days 1-5 and 8-12 of a 28 day cycle. For example, the patients in cohort 1 received 40 mg of Compound A, 15 mg of Compound E, and 40 mg of dexamethasone per day; the patients in cohort 2 received 40 mg of Compound A, 25 mg of Compound E, and 40 mg of dexamethasone per day; the patients in cohort 3 received 80 mg of Compound A, 25 mg of Compound E, and 40 mg of dexamethasone per day; the patients in cohort 4 received 160 mg of Compound A, 25 mg of Compound E, and 40 mg of dexamethasone per day; and the patients in cohort 5 received 240 mg of Compound A, 25 mg of Compound E, and 40 mg of dexamethasone per day. […] For example, the patients in cohort 6 received 160 mg of Compound A, 25 mg of Compound E, and 40 mg of dexamethasone per day; the patients in cohort 7 received 160 mg of Compound A, 25 mg of Compound E, and 40 mg of dexamethasone twice daily; and the patients in cohort 8 received 240 mg of Compound A, 25 mg of Compound E, and 40 mg of dexamethasone twice daily. Peripheral blood samples were obtained for PK and PD analysis at specified time points.
Series [3] has as its system acetylated tubulin (a marker of HDAC6 inhibition). The experiment in a line: Phase 1b PD: acetylated tubulin in PBMC. Format: in vivo, human. The conditions noted are these: at ≥80 mg Compound A.
Experimental: as §4
Series [4] relates to MM.1s myeloma cells. Briefly: Apoptosis by flow cytometry, Annexin V / propidium iodide (MM.1s). Format: cell-based. The conditions noted are these: 5 and 7 days, Compound A 2 μM, Lenalidomide 2 μM, Pomalidomide 1 μM. The method, then: (§2) H929 (FIGS. 11A & 11B) or MM.1s (FIGS. 11C & 11D) myeloma cells were exposed to drug for 5 (FIGS. 11A & 11C) and 7 (FIGS. 11B & 11D) days, and apoptosis was assessed by flow cytometry by measuring Annexin V binding and cellular permeability to propidium iodide. The relative fraction of cells that were live, in early apoptosis, in late apoptosis, or dead was then determined.
A general note: Flow cytometry measures light scatter and fluorescence of single cells or particles in a stream.

Series [5] can be described thus: Compound A monotherapy clinical trial (phase 1a).
Experimental: as §4
The nature of series [6]: Phase 1b clinical trial: PK in peripheral blood samples.
Experimental: as §4
Series [7] concerns H929 myeloma cells. The experiment in a line: Apoptosis by flow cytometry, Annexin V / propidium iodide (H929). It counts as cell-based. As to conditions: H929, 5 and 7 days; Compound A 2 μM, Lenalidomide 2 μM, Pomalidomide 1 μM. As to the method: as §2
The subject of series [8] is H929 myeloma cells. The experiment in a line: Cell cycle distribution by flow cytometry, propidium iodide (H929). The conditions noted are these: H929, 3 and 5 days; Compound A 2 μM, Lenalidomide 2 μM, Pomalidomide 1 μM. It counts as cell-based. As to the method: as §1
Series [9] concerns acetylated histones (a marker of class 1 HDAC inhibition). Briefly: Phase 1b PD: acetylated histones in PBMC. It counts as in vivo, human. As to conditions: at ≥80 mg Compound A.
Experimental: as §4
In another series the test system is HDAC1, 2, and 3. The experiment in a line: HDAC enzyme assays (HDAC1, 2, 3). It counts as biochemical. The method, then: (§3) Compounds for testing were diluted in DMSO to 50 fold the final concentration and a ten point three fold dilution series was made. The compounds were diluted in assay buffer (50 mM HEPES, pH 7.4, 100 mM KCl, 0.001% Tween-20, 0.05% BSA, 20 μM TCEP) to 6 fold their final concentration. The HDAC enzymes (purchased from BPS Biosciences) were diluted to 1.5 fold their final concentration in assay buffer. The tripeptide substrate and trypsin at 0.05 μM final concentration were diluted in assay buffer at 6 fold their final concentration. The final enzyme concentrations used in these assays were 3.3 ng/ml (HDAC1), 0.2 ng/ml (HDAC2), 0.08 ng/ml (HDAC3) and 2 ng/ml (HDAC6). The final substrate concentrations used were 16 μM (HDAC1), 10 μM (HDAC2), 17 μM (HDAC3) and 14 μM (HDAC6). Five μl of compound and 20 μl of enzyme were added to wells of a black, opaque 384 well plate in duplicate. Enzyme and compound were incubated together at room temperature for 10 minutes. Five μl of substrate was added to each well, the plate was shaken for 60 seconds and placed into a Victor 2 microtiter plate reader. The development of fluorescence was monitored for 60 min and the linear rate of the reaction was calculated. The IC50 was determined using Graph Pad Prism by a four parameter curve fit.

A further series has as its target T1, HDAC6 (Homo sapiens, UniProt Q9UBN7).
T1 construct: purchased BPS Biosciences
T1 sequence (Q9UBN7 1-1215): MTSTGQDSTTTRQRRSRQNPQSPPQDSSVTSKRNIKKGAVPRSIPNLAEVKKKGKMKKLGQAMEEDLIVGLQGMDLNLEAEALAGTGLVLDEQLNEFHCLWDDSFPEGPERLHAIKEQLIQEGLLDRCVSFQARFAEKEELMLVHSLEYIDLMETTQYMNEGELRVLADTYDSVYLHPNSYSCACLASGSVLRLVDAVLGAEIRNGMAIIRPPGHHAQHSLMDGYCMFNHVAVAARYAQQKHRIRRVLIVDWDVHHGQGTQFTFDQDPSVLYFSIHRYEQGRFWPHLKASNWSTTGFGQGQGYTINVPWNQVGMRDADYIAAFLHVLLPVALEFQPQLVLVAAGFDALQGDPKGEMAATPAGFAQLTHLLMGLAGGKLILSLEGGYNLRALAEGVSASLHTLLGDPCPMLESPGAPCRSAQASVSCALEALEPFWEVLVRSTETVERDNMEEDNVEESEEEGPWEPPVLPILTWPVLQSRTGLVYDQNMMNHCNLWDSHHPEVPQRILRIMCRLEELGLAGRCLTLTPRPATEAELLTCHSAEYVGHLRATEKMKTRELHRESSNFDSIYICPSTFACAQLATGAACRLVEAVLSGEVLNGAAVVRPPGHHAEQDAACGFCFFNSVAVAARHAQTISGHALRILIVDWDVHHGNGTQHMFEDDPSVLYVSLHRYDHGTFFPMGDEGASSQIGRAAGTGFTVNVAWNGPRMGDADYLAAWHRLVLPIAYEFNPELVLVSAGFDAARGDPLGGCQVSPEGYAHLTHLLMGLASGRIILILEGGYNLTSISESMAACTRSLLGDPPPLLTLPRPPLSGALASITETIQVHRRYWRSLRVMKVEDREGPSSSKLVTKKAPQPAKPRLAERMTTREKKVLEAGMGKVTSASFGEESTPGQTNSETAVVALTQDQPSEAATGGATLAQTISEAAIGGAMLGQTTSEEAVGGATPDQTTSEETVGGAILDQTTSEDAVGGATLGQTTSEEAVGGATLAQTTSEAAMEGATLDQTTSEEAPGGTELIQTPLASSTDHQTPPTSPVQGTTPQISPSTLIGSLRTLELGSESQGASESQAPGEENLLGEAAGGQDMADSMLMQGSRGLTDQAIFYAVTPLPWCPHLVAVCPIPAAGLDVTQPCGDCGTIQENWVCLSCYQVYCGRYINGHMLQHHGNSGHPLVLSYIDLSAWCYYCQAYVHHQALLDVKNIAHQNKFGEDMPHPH
The experiment in a line: HDAC enzyme assays (HDAC6 selectivity). Format: biochemical. The method, then:
as §3, with “Five μl of compound and 20 μl of enzyme were added to wells of a black, opaque 384 well plate in duplicate.” left out

Each structure is given as a SMILES string.

In the case of `O=C(CCCCCCNC(=O)c1cnc(N(c2ccccc2)c2ccccc2)nc1)NO` [Compound A, 2-(diphenylamino)-N-(7-(hydroxyamino)-7-oxoheptyl) pyrimidine-5-carboxamide], the “cell cycle distribution (G0/G1, S, G2/M)” value in the series on MM.1s myeloma cells [1] and in the series on H929 myeloma cells [8] was “small reduction” throughout. Further, the “acetylation of α-tubulin (inhibition of HDAC6)” value with H929 cells is reported as “hyperacetylation”. Also, in series [2], the “dose limiting toxicities (DLTs)” value is listed as “not observed”. Further, the “increase in acetylated tubulin” value in [3] is over 2 ×. Also, the “percentage of apoptotic cells” value with MM.1s myeloma cells [4] and in the series on H929 myeloma cells [7] was “small increase in apoptosis” in each case. Further, the “dose well-tolerated as a monotherapy (maximum dose examined)” value in series [5] was “up to 360 mg/day”. The “Maximal levels of Compound A” value in series [6] (at ≥80 mg, coadministered with lenalidomide and dexamethasone) is at least 1 µM. Further, the “PK for Compound A versus analogous dose levels in phase 1a monotherapy” value in series [6] (coadministration of lenalidomide) is listed as “similar”. For the same molecule, the “increase in acetylated histones” value in series [9] is “minimal increase”.
Turning to `O=C(CCCCCCNC(=O)c1cnc(N(c2ccccc2)c2ccccc2Cl)nc1)NO` [Compound B, 2-((2-chlorophenyl)(phenyl)amino)-N-(7-(hydroxyamino)-7-oxoheptyl)pyrimidine-5-carboxamide], the “inhibition of HDAC1, 2, and 3” value in the series on HDAC1, 2, and 3 is “low level inhibition”.
`O=C(NO)c1cnc(NC2(c3cccc(F)c3)CCCCC2)nc1` [Compound C, 2-((1-(3-fluorophenyl)cyclohexyl)amino)-N-hydroxypyrimidine-5-carboxamide]: the “selective for HDAC6 over class I HDAC's” value on HDAC6 was “more than 300 fold”.

The values are drawn from patent publication US20200323849A1, “COMBINATIONS OF HISTONE DEACETYLASE INHIBITORS AND IMMUNOMODULATORY DRUGS” (Acetylon Pharmaceuticals, Inc., priority 2013, published 2020).
